Patent US20230372302A1 (priority 2019, published 2023)
“Also recorded” adds a separate entry of the source. Counter-ions that a name gives are not always drawn.

Experiments:
[1] = system: vocal cords and respiratory muscles of rats; conditions: rat, in vivo
neuromuscular blockade = conditions: human, in vivo; cited from earlier work
[2] = human, in vivo; cited from earlier work
[3] = target: T1, recombinant human alpha 1D adrenergic receptor (ADR1D) (Homo sapiens, UniProt P25100)
T1 sequence (P25100 1-572): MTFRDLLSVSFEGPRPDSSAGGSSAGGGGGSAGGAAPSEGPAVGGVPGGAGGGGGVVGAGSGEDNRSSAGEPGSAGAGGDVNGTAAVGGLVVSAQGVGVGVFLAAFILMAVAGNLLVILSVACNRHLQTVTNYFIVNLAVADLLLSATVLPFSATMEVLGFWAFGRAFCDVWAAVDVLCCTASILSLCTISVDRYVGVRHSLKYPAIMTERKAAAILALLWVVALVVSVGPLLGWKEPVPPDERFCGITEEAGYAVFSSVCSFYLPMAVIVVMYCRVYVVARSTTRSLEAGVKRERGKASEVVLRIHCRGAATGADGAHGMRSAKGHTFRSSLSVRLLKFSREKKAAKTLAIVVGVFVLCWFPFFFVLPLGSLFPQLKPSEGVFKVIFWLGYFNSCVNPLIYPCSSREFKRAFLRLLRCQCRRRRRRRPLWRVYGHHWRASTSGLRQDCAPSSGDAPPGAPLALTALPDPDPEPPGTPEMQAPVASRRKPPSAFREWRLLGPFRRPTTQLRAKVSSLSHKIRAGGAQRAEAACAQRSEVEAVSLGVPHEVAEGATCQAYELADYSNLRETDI

[4] = system: VC and laryngeal muscles/laryngospasm; conditions: rat, in vivo; cited from earlier work
[5] = system: T2, alpha 1 adrenergic receptor subtypes (1A, 1B, 1D); assay type: binding, human
T2 construct: rows headed: BA at all subtypes; other: subnanomolar range; Ki at alpha 1 adrenergic receptor subtypes; other: result in words

[6] = system: alpha 1 subtypes (1A, 1B, 1D); assay type: cell-based, human
[7] = target: recombinant human alpha 1A adrenergic receptor (ADR1A) (Homo sapiens, UniProt P35348); assay type: binding
[8] = target: T3, recombinant human alpha 1B adrenergic receptor (ADR1B) (Homo sapiens, UniProt P35368)
T3 sequence (P35368 whole entry): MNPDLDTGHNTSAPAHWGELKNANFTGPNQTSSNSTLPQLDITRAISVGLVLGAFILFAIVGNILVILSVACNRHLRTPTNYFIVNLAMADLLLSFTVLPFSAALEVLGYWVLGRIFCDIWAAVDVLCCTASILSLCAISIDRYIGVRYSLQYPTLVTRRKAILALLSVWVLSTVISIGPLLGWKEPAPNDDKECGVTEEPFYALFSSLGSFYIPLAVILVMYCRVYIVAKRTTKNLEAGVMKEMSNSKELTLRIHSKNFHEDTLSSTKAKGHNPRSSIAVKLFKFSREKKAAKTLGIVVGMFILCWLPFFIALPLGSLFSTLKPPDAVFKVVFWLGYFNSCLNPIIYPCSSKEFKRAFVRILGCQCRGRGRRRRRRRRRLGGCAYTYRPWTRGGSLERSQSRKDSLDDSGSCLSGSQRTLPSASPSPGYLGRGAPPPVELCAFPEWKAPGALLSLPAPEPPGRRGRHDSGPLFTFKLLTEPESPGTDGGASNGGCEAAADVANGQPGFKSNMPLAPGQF

rat = conditions: in vivo; cited from earlier work
[9] = target: vesicular monoamine transporter-VMAT (Homo sapiens, UniProt Q05940); assay: cell-based
vesicular monoamine transporter-VMAT, sequence (Q05940 whole entry): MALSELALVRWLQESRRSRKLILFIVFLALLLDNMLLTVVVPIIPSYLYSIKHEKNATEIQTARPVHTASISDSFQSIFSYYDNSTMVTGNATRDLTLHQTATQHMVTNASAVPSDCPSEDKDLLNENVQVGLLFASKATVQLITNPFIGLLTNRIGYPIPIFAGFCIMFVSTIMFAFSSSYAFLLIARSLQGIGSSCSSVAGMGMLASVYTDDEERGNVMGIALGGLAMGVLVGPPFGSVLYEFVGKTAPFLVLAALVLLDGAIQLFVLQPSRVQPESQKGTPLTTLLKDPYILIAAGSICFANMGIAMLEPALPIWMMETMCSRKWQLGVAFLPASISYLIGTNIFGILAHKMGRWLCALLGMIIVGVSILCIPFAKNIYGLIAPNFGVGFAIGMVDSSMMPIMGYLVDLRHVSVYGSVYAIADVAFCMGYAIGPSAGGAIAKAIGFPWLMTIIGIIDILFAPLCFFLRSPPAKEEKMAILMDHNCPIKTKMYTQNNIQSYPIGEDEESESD

[10] = target: T4, recombinant human VMAT2 transporters (Homo sapiens, UniProt Q05940); assay type: binding
T4 construct: expressed in transfected cells; host or cells: HEK-293
T4 sequence (Q05940 whole entry): as above

[11] = target: T5, α-1 adrenergic receptor 1A subtype (Homo sapiens, UniProt P35348); conditions: cited from earlier work
T5 sequence (P35348 1-466): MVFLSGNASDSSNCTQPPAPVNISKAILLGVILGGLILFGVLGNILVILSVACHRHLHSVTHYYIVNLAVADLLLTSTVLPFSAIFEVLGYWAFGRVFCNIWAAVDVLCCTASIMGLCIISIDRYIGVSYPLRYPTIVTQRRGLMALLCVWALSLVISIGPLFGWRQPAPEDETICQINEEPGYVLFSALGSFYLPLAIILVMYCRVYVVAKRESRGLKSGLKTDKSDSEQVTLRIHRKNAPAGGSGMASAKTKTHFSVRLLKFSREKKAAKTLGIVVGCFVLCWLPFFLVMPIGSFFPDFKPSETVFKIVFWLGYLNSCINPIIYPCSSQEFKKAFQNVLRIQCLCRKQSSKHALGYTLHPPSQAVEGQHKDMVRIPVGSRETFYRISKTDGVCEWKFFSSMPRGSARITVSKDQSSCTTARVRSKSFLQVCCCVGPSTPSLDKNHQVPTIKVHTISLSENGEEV

[12] = target: T3, recombinant human alpha 1B adrenergic receptor (ADR1B); assay: biochemical
[13] = target: T1, recombinant human alpha 1D adrenergic receptor (ADR1D); assay: biochemical

For `CC(=O)Oc1ccc2c3c1O[C@H]1[C@@H](OC(C)=O)C=C[C@H]4[C@@H](C2)N(C)CC[C@@]341` [heroin], the “vocal cord closure and chest wall rigidity effect (specific to F/FA)” value [1] was “not demonstrated”.

In the case of `C[N+](C)(C)CCOC(=O)CCC(=O)OCC[N+](C)(C)C` [succinylcholine], the “onset of effect given intramuscularly” value (neuromuscular blockade) is listed as 2 to 3 min, the “persistence of maximum blockade” value (neuromuscular blockade) is listed as “about 2 minutes” and the “recovery time after maximum blockade” value (neuromuscular blockade) is listed as 4 to 6 min. For the same compound, the “time until neuromuscular blockade develops” value (neuromuscular blockade) was “about 1 minute”.

For `C[C@H](Cc1cc2c(c(C(N)=O)c1)N(CCCO)CC2)NCCOc1ccccc1OCC(F)(F)F` [SILODOSIN, (3-Hydroxypropyl)-5-[(2R)-2-({2-[2-(2,2,2trifluoroethoxy)phenoxy]ethyl}amino)propyl]-2,3-d hydro-1H-indole-7-carboxamide], the “dizziness and orthostatic hypotension” value [2] is listed as 3% and the subjects with syncope [2] is listed as 1/897.

For `NC[C@H](O)c1ccc(O)c(O)c1` [norepinephrine], the “binding at the 1D subtype over 1A and 1B receptor subtypes, respectively” value [3] was 9-20 fold.

In the case of `C=CCN1CC[C@]23c4c5ccc(O)c4O[C@H]2C(=O)CC[C@@]3(O)[C@H]1C5.Cl` [naloxone, 17-Allyl-4,5α-epoxy-3,14-dihydroxymorphinan-6-one hydrochloride], the “impact on the effects of F on VC and laryngeal muscles/laryngospasm” value [4] is given as “minimal impact” and the “binding at alpha 1 adrenergic receptor subtypes” value [5] is given as “neither morphine (MSO4) or naloxone had any notable or relevant binding activity”.

With `CN1CC[C@]23c4c5ccc(O)c4O[C@H]2[C@@H](O)C=C[C@H]3[C@H]1C5` [morphine] the “act as antagonists at all alpha 1 subtypes” value [6] was “not morphine”, the “binding at alpha 1A (bind all alpha 1 subtypes)” value [7] was “not morphine or naloxone bind” and the “binding at alpha 1B (bind all alpha 1 subtypes)” value [8] was “not morphine or naloxone bind”. The “binding at alpha 1D (bind all alpha 1 subtypes)” value [3] was “not morphine or naloxone bind” and the “binding at alpha 1 adrenergic receptor subtypes” value [5] was “not morphine; also recorded: neither morphine (MSO4) or naloxone had any notable or relevant binding activity”.

For `CN[C@@H](C)Cc1ccccc1` [methamphetamine], the “vocal cord closure and chest wall rigidity effect (specific to F/FA)” value [1] is given as “not demonstrated”, the LD90 (rat) is given as 100 mg/kg and the IC50 [9] is given as roughly 4000 nM. For the same compound, the “binding to VMAT2 transporter” value [10] was “bind to recombinant human VMAT2 transporters”.

In the case of `CCOc1ccccc1OCCN[C@H](C)Cc1ccc(OC)c(S(N)(=O)=O)c1` [tamsulosin, (−)-(R)-5-[2-[[2-(o-Ethoxyphenoxy)ethyl]amino]propyl]-2-methoxybenzenesulfon-amide, monohydrochloride], the “binding affinity at the 1A subtype greater over other α-1 antagonists” value [11] is listed as 12-30 times, the Ki [12] is listed as less than 1 nM and the Ki [13] is listed as less than 1 nM.

For `C=CC[N+]1([C@H]2C[C@H]3[C@@H]4CC[C@H]5C[C@H](O)[C@@H](N6CCOCC6)C[C@]5(C)[C@H]4CC[C@]3(C)[C@H]2OC(C)=O)CCCC1` [rocuronium bromide, 1-[17β-(acetyloxy)-3α-hydroxy-2β-(4-morpholinyl)-5α-androstan-16β-yl]-1-(2-propenyl)pyrrolidinium bromide], the “time to completed intubation in most patients” value (neuromuscular blockade) is given as no more than 2 min, the “time to excellent or good intubating conditions in most patients” value (neuromuscular blockade) is given as “less than 2 minutes” and the “time to maximum blockade in most patients” value (neuromuscular blockade) is given as “less than 3 minutes”. The “time to neuromuscular block sufficient for intubation (80% block or greater), median (range)” value (neuromuscular blockade) was 1 (0.4-6) minute(s).

In the case of `COC(=O)[C@H]1[C@@H](OC(=O)c2ccccc2)C[C@@H]2CC[C@H]1N2C` [cocaine], the “vocal cord closure and chest wall rigidity effect (specific to F/FA)” value [1] is listed as “not demonstrated” and the LD85 (rat) is listed as 70 mg/kg.
